{"source": "patent US10716831B2", "about": "“Methods for inhibiting infectious peritonitis” (priority 2014, dated 2020)", "origin": "cited, not measured here", "key": {"[1]": {"details": "in vivo"}, "Pseudomonas aeruginosa": {"tested_on": "Pseudomonas aeruginosa", "details": "controlled clinical trials, orally or intravenously administered, maximum"}, "[2]": {"details": "intraperitoneal compared with intravenous administration; Tobudic et al 2012"}, "[3]": {"tested_on": "Klebsiella and Enterobacter spp."}, "[4]": {"tested_on": "bacteria of the B. fragilis group"}, "[5]": {"tested_on": "Peptostreptococcus (including Peptoniphilus, Finegoldia and Anaerococcus) and Fusobacterium", "details": "anaerobic genera"}, "[6]": {"experiment": "not given", "remark": "listed apart in the source"}, "[7]": {"tested_on": "strains of organisms from the susceptible genera"}, "[8]": {"tested_on": "Staphylococcus, Streptococcus, Neisseria, Escherichia, Proteus, Serratia, Salmonella, Shigella, Pseudomonas, Haemophilus and Vibrio", "details": "aerobic genera"}, "[9]": {"tested_on": "polymorphonuclear leukocytes"}, "[10]": {"tested_on": "resistant bacterial strains", "details": "controlled clinical trials, orally or intravenously administered; overall"}, "infectious peritonitis": {"tested_on": "infectious peritonitis", "details": "combination with imipenem; Pachón-Ibáñez et al 2011"}, "monocytes": {"tested_on": "monocytes", "details": "in vitro; Volk et al 1991"}, "[11]": {"tested_on": "non-traumatic generalized abdominal sepsis", "details": "subcutaneous, with systemic antibiotics; Orozco et al 2006"}, "peritoneal macrophages": {"tested_on": "peritoneal macrophages", "details": "intraperitoneal; Selgas et al 1996"}, "[12]": {"details": "third and last day of treatment"}, "bacterial peritonitis": {"tested_on": "bacterial peritonitis", "details": "mice, intraperitoneal for 5 days; Austin et al 1995"}, "[13]": {"tested_on": "cecal ligation and puncture", "details": "mice, subcutaneous injection; Gennari et al 1994"}, "[14]": {"tested_on": "peritonitis induced by cecal ligation and puncture", "details": "rats, systemic; Toda et al 1994"}, "fecal peritonitis": {"tested_on": "fecal peritonitis", "details": "mice, prophylactic administration; Barsig et al 1996"}}, "data": [{"molecule": "C[C@@H]1O[C@@H]1P(=O)(O)O", "note": "[Fosfomycin disodium]", "values": [{"measurement": "local or oral tolerability", "setting": "[1]", "value": "locally irritant if un-neutralized"}, {"measurement": "solubility in water", "value": "highly soluble in water"}, {"measurement": "pH of 5% solution", "value": "9.0-10.5"}]}, {"molecule": "C[C@@H]1O[C@@H]1P(=O)(O)O.NC(CO)(CO)CO", "note": "[Fosfomycin trometamol]", "values": [{"measurement": "local or oral tolerability", "setting": "[1]", "value": "well tolerated when given orally"}, {"measurement": "solubility in water", "value": "highly soluble in water"}, {"measurement": "pH of 5% solution", "value": "3.5-5.5"}]}, {"molecule": "C[C@@H]1O[C@@H]1P(=O)(O)O", "note": "[fosfomycin, [(2R,3S)-3-methyloxiran-2-yl]phosphonic acid]", "values": [{"measurement": "appearance of resistant bacterial strains", "setting": "Pseudomonas aeruginosa", "value": 15, "unit": "%"}, {"measurement": "intraperitoneal levels", "setting": "[2]", "value": "superior intraperitoneal levels"}, {"measurement": "antibacterial activity", "setting": "[3]", "value": "active"}, {"measurement": "antibacterial activity", "setting": "[4]", "value": "not against"}, {"measurement": "antibacterial activity", "setting": "[5]", "value": "active"}, {"measurement": "eosinophilia", "setting": "[6]; Gobernado 2003", "value": 0.2, "unit": "%"}, {"measurement": "transient rashes (allergy)", "setting": "[6]; Gobernado 2003", "value": "0.3 % of cases"}, {"measurement": "transiently raised liver enzymes", "setting": "[6]; Gobernado 2003", "value": "0.3 % of cases"}, {"measurement": "toxicity to mammalian cells and organs", "setting": "[6]; fosfomycin disodium at intravenous doses of up to 0.5 g/kg/day in human patients", "value": "remarkably non-toxic"}, {"measurement": "tested strains showing synergistic effect", "setting": "[7]; early studies, various antibiotic combinations", "value": "70-100%"}, {"measurement": "synergy rates", "setting": "[7]; subsequent more extensive studies", "value": "36-74%"}, {"measurement": "antibacterial activity", "setting": "[8]", "value": "highly active"}, {"measurement": "concentration in polymorphonuclear leukocytes relative to extracellular fluid", "setting": "[9]", "value": "twice those of the extracellular fluid"}, {"measurement": "appearance of resistant bacterial strains", "setting": "[10]", "value": 3.0, "unit": "%"}, {"measurement": "synergy and in-vivo efficacy with imipenem", "setting": "infectious peritonitis", "value": "showed synergy and high in-vivo efficacy"}]}, {"molecule": "GM-CSF: cytokine of the colony-stimulating factor family; mature human protein SEQ ID NO: 2", "values": [{"measurement": "loss of HLA-DR antigen expression to <20%", "setting": "monocytes", "value": "reversed"}, {"measurement": "rate of infectious complications and length of hospitalization", "setting": "[11]", "value": "reduced"}, {"measurement": "peritoneal macrophage numbers", "setting": "peritoneal macrophages", "value": "large increase"}, {"measurement": "peritoneal transport of water or solutes", "setting": "peritoneal macrophages", "value": "did not affect"}, {"measurement": "minor flu-like symptoms", "setting": "[12]", "value": "2 of 8"}, {"measurement": "survival", "setting": "bacterial peritonitis", "value": "improved survival"}, {"measurement": "mortality", "setting": "[13]", "value": "significantly reduced"}]}, {"molecule": "recombinant murine GM-CSF: recombinant murine GM-CSF used in rat and mouse peritonitis studies (protein, UniProt P01587 18-141, looked up) Granulocyte-macrophage …: APTRSPITVTRPWKHVEAIKEALNLLDDMPVTLNEEVEVVSNEFSFKKLTCVQTRLKIFEQGLRGNFTKLKGALNMTASYYQTYCPPTPETDCETQVTTYADFIDSLKTFLTDIPFECKKPGQK", "values": [{"measurement": "survival rate", "setting": "[14]", "value": "did not improve"}, {"measurement": "leukocyte numbers and protection", "setting": "fecal peritonitis", "value": "neither augmented leukocyte numbers nor protected mice"}]}]}
